Experimental data as given in patent publication US9062088B2, “CDK-inhibiting pyrrolopyrimidine carboxamide derivative or pharmaceutically acceptable salt thereof, and pharmaceutical composition containing the same as active ingredient for preventing or treating hepatocellular carcinoma” (SNU R&DB Foundation, priority 2010, dated 2015).
Blank lines part the entries; values can stand above or below the molecule they belong to.

How the values were obtained:
SNU-354 cells [1] = test: MTT assay, cell viability; format: cell-based; conditions: Homo sapiens, SNU-354, read-out: Cell viability (%)
Experimental: Cell viability was measured by MTT assay. SNU-354 cells in the log phase of cell growth curve were distributed in a 24-well plate at the density of 2×10^4 cells/well. […] After allowing enough time for reaction, MTT reagent (MTT dissolved in PBS at the concentration of 5 mg/mL) (Sigma-Aldrich, USA) was added to each well, followed by reaction at 37° C. for 3 hours. Then, the supernatant was eliminated and the precipitated formazan crystals were dissolved in dimethyl sulfoxide, followed by measurement of absorbance with ELISA plate reader.

Cdk7/cyclin H/MAT1 = biological target: T1, Cdk7/cyclin H/MAT1 (Homo sapiens, UniProt P50613); test: In vitro kinase assay of Cdk7, RNA Pol II-CTD-GST substrate; format: biochemical; conditions: 0 nM = 100
T1 construct: purchased Upstate
T1 sequence (P50613 whole entry): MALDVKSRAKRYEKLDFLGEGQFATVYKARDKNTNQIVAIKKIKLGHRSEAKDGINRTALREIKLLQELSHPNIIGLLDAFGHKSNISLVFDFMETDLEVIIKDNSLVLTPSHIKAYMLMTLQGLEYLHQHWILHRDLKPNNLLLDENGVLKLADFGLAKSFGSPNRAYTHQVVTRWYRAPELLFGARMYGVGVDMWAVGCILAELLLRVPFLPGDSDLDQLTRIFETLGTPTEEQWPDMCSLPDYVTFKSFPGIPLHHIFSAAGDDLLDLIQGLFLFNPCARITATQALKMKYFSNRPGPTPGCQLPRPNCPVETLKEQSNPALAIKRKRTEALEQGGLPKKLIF
T1 sequence (P51946 whole entry partner): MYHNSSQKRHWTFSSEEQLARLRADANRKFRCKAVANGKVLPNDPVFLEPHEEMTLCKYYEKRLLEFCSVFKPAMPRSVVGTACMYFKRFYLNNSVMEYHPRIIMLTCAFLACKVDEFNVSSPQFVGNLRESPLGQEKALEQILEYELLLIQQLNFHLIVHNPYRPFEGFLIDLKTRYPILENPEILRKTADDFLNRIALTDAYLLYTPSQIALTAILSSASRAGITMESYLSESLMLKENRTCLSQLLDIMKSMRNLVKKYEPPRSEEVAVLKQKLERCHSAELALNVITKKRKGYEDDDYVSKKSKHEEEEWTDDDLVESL
T1 sequence (P51948 whole entry partner): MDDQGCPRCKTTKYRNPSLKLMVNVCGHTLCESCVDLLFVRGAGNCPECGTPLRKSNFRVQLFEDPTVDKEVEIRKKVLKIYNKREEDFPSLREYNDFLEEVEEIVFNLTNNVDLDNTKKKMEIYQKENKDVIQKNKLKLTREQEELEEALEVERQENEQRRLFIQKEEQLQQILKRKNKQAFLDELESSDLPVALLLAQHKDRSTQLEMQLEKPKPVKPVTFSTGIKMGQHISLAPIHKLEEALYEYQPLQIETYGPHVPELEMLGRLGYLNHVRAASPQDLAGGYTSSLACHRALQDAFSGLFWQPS
Experimental: (§1) To kinase assay buffer were added RNA Pol II-CTD-GST protein (Jena Bioscience, Germany) as a substrate, Cdk9/cyclin T1 or Cdk7/cyclin H/MAT1 recombinant protein (Upstate) as an enzyme, 2.5 μCi [γ-32P]ATP, and 100 μM MgAc/ATP. The total reaction volume was adjusted to 50 μl. Kinase assay reaction was induced at 30° C. for 20 minutes. Upon completion of the reaction, electrophoresis was performed on 8% SDS-polyacrylamide gel. The activities of Cdk7 and Cdk9 over the concentrations of the compounds of Example 1 and Example 2 were confirmed by autoradiography and the results are shown in FIG. 5˜FIG. 8 and Table 3.
(§2) The intensity of bands was analyzed by densitometry (GS-800, Bio-Rad).

Cdk9/cyclin T1 = biological target: T2, Cdk9/cyclin T1 (Homo sapiens, UniProt P50750); test: In vitro kinase assay of Cdk9, RNA Pol II-CTD-GST substrate; format: biochemical; conditions: 0 nM = 100
T2 construct: purchased Upstate
T2 sequence (P50750 whole entry): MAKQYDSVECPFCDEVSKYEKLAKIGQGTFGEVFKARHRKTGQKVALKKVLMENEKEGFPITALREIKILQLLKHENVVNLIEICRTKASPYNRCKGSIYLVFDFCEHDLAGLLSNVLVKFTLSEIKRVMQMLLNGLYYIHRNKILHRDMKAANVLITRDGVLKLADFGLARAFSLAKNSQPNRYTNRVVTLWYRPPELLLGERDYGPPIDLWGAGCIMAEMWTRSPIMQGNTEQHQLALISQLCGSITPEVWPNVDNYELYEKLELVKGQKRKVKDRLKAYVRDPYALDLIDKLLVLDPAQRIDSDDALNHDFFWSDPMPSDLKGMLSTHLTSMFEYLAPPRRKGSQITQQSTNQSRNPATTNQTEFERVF
T2 sequence (O60563 whole entry partner): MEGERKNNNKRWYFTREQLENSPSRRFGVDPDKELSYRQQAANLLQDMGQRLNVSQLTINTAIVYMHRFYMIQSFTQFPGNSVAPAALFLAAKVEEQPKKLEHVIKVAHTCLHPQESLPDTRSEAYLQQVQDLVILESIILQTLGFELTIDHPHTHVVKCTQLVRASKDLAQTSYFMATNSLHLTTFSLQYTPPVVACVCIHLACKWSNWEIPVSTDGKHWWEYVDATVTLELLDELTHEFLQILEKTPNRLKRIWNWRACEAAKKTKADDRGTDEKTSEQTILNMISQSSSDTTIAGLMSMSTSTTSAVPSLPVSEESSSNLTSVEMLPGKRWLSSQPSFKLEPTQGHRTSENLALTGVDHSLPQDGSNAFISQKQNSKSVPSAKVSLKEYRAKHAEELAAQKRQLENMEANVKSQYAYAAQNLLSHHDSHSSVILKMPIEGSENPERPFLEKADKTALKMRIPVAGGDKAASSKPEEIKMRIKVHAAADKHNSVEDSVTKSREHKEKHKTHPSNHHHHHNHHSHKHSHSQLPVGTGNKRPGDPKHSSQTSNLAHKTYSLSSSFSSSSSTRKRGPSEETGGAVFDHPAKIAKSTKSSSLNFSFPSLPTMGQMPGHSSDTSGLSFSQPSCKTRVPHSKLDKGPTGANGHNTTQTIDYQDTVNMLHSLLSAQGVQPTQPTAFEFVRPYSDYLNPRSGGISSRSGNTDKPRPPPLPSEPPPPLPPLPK
Experimental: as §1, §2

SNU-354 cells [2] = test: FACS analysis of sub G1 ratio (Experimental Example 1-6-3); format: cell-based, human
Experimental: The cells were collected and washed with cold PBS, followed by reaction in 500 μl of cold 70% ethanol at 4° C. for overnight to fix the cells. The cells were washed with 500 μl of PBS three times, followed by reaction with 500 μl of PBS containing 50 μg/mL propidium iodide (P1) and 50 μl of 1 mg/mL RNAse A at room temperature for 30 minutes in the darkness. Fluorescence of the P1 stained cell was measured by using caliber flow cytometer and cell quest program (Becton Dickinson Immunocytometry Systems, CA, USA). Sub G1 ratio changes of HCC SNU-354 cells induced by the compounds of Examples 1 and 2 were measured by FACS analysis. The results are shown in FIG. 19, FIG. 20, Table 9 and Table 10.

Cdk9 = test: Western blotting of Cdk9 activity (phospho RNA Pol II Ser 2); format: cell-based, human; conditions: 0 nM = 100
Experimental: (§3) After treating the compound of Example 2 to SNU-354 cells, cell pellet was lysed with lysis buffer (0.5% triton X-100, 20 mM Tris-HCl (pH 7.5), 2 mM magnesium chloride, 1 mM DTT, 1 mM EGTA, 50 mM β-glycerophosphate, 25 mM sodium fluoride, 1 mM Na3VO4, 2 μg/mL leupeptin, 2 μg/mL pepstatin A, 100 μg/mL phenylmethylsulfonyl fluoride, and 1 μg/mL antipain) at 4° C. for 1 hour, followed by quantification of protein. A proper amount of protein was electrophoresed on SDS-PAGE gel and then transferred onto polyvinylidene difluoride membrane (Millipore Co., Bedford, Mass.). The membrane was reacted in inhibiting solution (PBS, 5% skim milk, 0.1% tween-20) at room temperature for 1˜2 hours. The membrane was reacted with the primary antibody (goat anti-phospho-Rb, rabbit anti-nucleolin) diluted in the inhibiting solution (1:1000). Then, the membrane was washed with PBST, followed by reaction with the proper secondary antibody (horseradish peroxidase (HRP) conjugated) at room temperature for 1 hour.
(§4) Experiment was performed by the same manner as described in step 2 of Experimental Example 1 except that rabbit anti-phospho RNA Pol II (Ser 5) and rabbit anti-phospho RNA Pol II (Ser 2) (from Bethyl, TX, USA) were used as primary antibodies. The results are shown FIG. 9˜FIG. 12, and Table 4 and Table 5.

Cdk7 = test: Western blotting of Cdk7 activity (phospho RNA Pol II Ser 5); format: cell-based, human; conditions: 0 nM = 100
Experimental: as §3, §4

[3] = test system: caspase-3 activity in SNU-354 cells; test: Measurement of caspase-3 activity (Experimental Example 1-6-2); format: cell-based, human
Experimental: SNU-354 cells treated with the compounds of Examples 1 and 2 were lysed with lysis buffer (0.5% triton X-100, 20 mM Tris-HCl (pH 7.5), 2 mM magnesium chloride, 1 mM DTT, 1 mM EGTA, 50 mM β-glycerophosphate, 25 mM sodium fluoride, 1 mM Na3VO4, 2 μg/mL leupeptin, 2 μg/mL pepstatin A, 100 μg/mL phenylmethylsulfonyl fluoride, 1 μg/mL antipain). The protease analysis buffer necessary for the reaction (20 mM HEPES (pH 7.5), 10% glycerol, 2 mM DTT) was mixed with 20 μM Ac-DEVD-AMC (BD Biosciences, CA, USA) and cell lysates, followed by reaction at 37° C. for 1 hour. Upon completion of the reaction, caspase-3 activity was measured at 380 nm of excitation and 460 nm of emission with spectrofluorometer (TECAN, Switzerland) and the results are shown in FIG. 18 and Table 8.

Cdk7 activity (Cdk7/cyclin H/MAT1; 10 nM): 92.2% | Cdk7 activity (Cdk7/cyclin H/MAT1; 100 nM): 91.1% | Cdk7 activity (Cdk7/cyclin H/MAT1; 1000 nM): 6.5% | Cdk9 activity (Cdk9/cyclin T1; 10 nM): 95.4% | Cdk9 activity (Cdk9/cyclin T1; 100 nM): 40.5% | Cdk9 activity (Cdk9/cyclin T1; 1000 nM): 3.3%
SMILES: CC(C)C(=O)OC[C@@H]1O[C@H](n2cnc(N)c3c(C(N)=O)c(Br)nc2-3)[C@H](O)[C@H]1O [Example 2, ((2S,3R,4R,5S)-5-(4-amino-6-bromo-5-carbamoyl-1H-pyrrolo[2,3-d]pyrimidin-1-yl)-3,4-dihydroxy-tetrahydrofuran-2-yl)methyl isobutyrate]
viability at 0.5 µM (SNU-354 cells [1]): 86.3% | viability at 1 µM (SNU-354 cells [1]): 75.5% | viability at 2 µM (SNU-354 cells [1]): 64.7% | viability at 5 µM (SNU-354 cells [1]): 47.6% | viability at 10 µM (SNU-354 cells [1]): 35.4% | viability at 50 µM (SNU-354 cells [1]): 16.8% | sub G1 ratio (%) (SNU-354 cells [2]; 0.1 μM, 24 hours, 0 μM = 3.0): 3.8% | sub G1 ratio (%) (SNU-354 cells [2]; 0.5 μM, 24 hours, 0 μM = 3.0): 39.6% | sub G1 ratio (%) (SNU-354 cells [2]; 1 μM, 24 hours, 0 μM = 3.0): 52.0% | sub G1 ratio (%) (SNU-354 cells [2]; 5 μM, 24 hours, 0 μM = 3.0): 69.8% | sub G1 ratio (%) (SNU-354 cells [2]; 10 μM, 24 hours, 0 μM = 3.0): 72.6% | sub G1 ratio (%) (SNU-354 cells [2]; 50 μM, 24 hours, 0 μM = 3.0): 73.1% | sub G1 ratio (%) (SNU-354 cells [2]; 50 μM, time 6 h, 0 h = 10.3): 51.6% | sub G1 ratio (%) (SNU-354 cells [2]; 50 μM, time 12 h, 0 h = 10.3): 67.6% | sub G1 ratio (%) (SNU-354 cells [2]; 50 μM, time 18 h, 0 h = 10.3): 72.3% | sub G1 ratio (%) (SNU-354 cells [2]; 50 μM, time 24 h, 0 h = 10.3): 81.2% | concentration at which sub G1 ratio was rapidly increased (SNU-354 cells [2]; 24 hours): 0.5 µM | Cdk9 activity (Cdk9; 0.1 nM): 81.5% | Cdk9 activity (Cdk9; 0.5 nM): 27.3% | Cdk9 activity (Cdk9; 1 nM): 11% | Cdk9 activity (Cdk9; 5 nM): 2.2% | Cdk9 activity (Cdk9; 10 nM): 1.1% | Cdk9 activity (Cdk9; 50 nM): 0.7% | Cdk7 activity (Cdk7; 0.1 nM): 88.4% | Cdk7 activity (Cdk7; 0.5 nM): 44.0% | Cdk7 activity (Cdk7; 1 nM): 12.7% | Cdk7 activity (Cdk7; 5 nM): 3.3% | Cdk7 activity (Cdk7; 10 nM): 1.6% | Cdk7 activity (Cdk7; 50 nM): 0.6% | caspase-3 activity relative to the control ([3]; 0.5 uM and up): 7 times

Cdk7 activity (Cdk7/cyclin H/MAT1; 10 nM): 41.8% | Cdk7 activity (Cdk7/cyclin H/MAT1; 100 nM): 10.8% | Cdk7 activity (Cdk7/cyclin H/MAT1; 1000 nM): 5.8% | Cdk9 activity (Cdk9/cyclin T1; 10 nM): 15.8% | Cdk9 activity (Cdk9/cyclin T1; 100 nM): 1.0% | Cdk9 activity (Cdk9/cyclin T1; 1000 nM): 0.1%
SMILES: NC(=O)c1c(Br)nc2n([C@H]3O[C@@H](CO)[C@H](O)[C@H]3O)cnc(N)c1-2 [Example 1, 4-amino-6-bromo-1-((2S,3R,4R,5S)-3,4-dihydroxy-5-(hydroxymethyl)-tetrahydrofuran-2-yl)-1H-pyrrolo[2,3-d]pyrimidine-5-carboxamide]
viability at 0.5 µM (SNU-354 cells [1]): 96.4% | viability at 1 µM (SNU-354 cells [1]): 84.3% | viability at 2 µM (SNU-354 cells [1]): 74% | viability at 5 µM (SNU-354 cells [1]): 68% | viability at 10 µM (SNU-354 cells [1]): 55.6% | viability at 50 µM (SNU-354 cells [1]): 36.6% | sub G1 ratio (%) (SNU-354 cells [2]; 0.1 μM, 24 hours, 0 μM = 3.0): 2.7% | sub G1 ratio (%) (SNU-354 cells [2]; 0.5 μM, 24 hours, 0 μM = 3.0): 3.2% | sub G1 ratio (%) (SNU-354 cells [2]; 1 μM, 24 hours, 0 μM = 3.0): 3.5% | sub G1 ratio (%) (SNU-354 cells [2]; 5 μM, 24 hours, 0 μM = 3.0): 28.1% | sub G1 ratio (%) (SNU-354 cells [2]; 10 μM, 24 hours, 0 μM = 3.0): 64.2% | sub G1 ratio (%) (SNU-354 cells [2]; 50 μM, 24 hours, 0 μM = 3.0): 71.1% | sub G1 ratio (%) (SNU-354 cells [2]; 50 μM, time 6 h, 0 h = 10.3): 29.1% | sub G1 ratio (%) (SNU-354 cells [2]; 50 μM, time 12 h, 0 h = 10.3): 51.8% | sub G1 ratio (%) (SNU-354 cells [2]; 50 μM, time 18 h, 0 h = 10.3): 71.7% | sub G1 ratio (%) (SNU-354 cells [2]; 50 μM, time 24 h, 0 h = 10.3): 78.1% | concentration at which sub G1 ratio was rapidly increased (SNU-354 cells [2]; 24 hours): 5 µM | Cdk9 activity (Cdk9; 0.1 nM): 90.4% | Cdk9 activity (Cdk9; 0.5 nM): 87.0% | Cdk9 activity (Cdk9; 1 nM): 46.1% | Cdk9 activity (Cdk9; 5 nM): 1.9% | Cdk9 activity (Cdk9; 10 nM): 1.3% | Cdk9 activity (Cdk9; 50 nM): 0.2% | Cdk7 activity (Cdk7; 0.1 nM): 90.1% | Cdk7 activity (Cdk7; 0.5 nM): 76.3% | Cdk7 activity (Cdk7; 1 nM): 37.6% | Cdk7 activity (Cdk7; 5 nM): 3.0% | Cdk7 activity (Cdk7; 10 nM): 1.7% | Cdk7 activity (Cdk7; 50 nM): 0.3% | caspase-3 activity relative to the control ([3]; 1.0 uM and up): three times as high as that of the control
